US20170166592A1, “AZA-BENZIMIDAZOLE INHIBITORS OF PAD4” (Padlock Therapeutics, Inc., priority 2015, published 2017)
Where a name gives a salt, the structure may show the parent alone. Read-outs that look alike come from different tables or passages of the source.

Legend:
[1] = target: hPAD4 (Homo sapiens, UniProt Q9UM07); test: PAD4 inhibition assay, RapidFire mass spectrometry (hPAD4 RFMS); assay type: biochemical
Method: Compounds of the present invention were assayed as inhibitors of PAD4 using the assay protocol described below.
Compounds were solubilised in 100% DMSO to achieve 100 mM final compound concentration. Compound stock solutions were stored at RT. A series of dilutions were prepared in DMSO and mixed 8 times with 20 μL, mixing volume. Final assay conditions were as follows:
Assay buffer (as aforementioned): 100 mM Tris-HCl (pH 7.6), 2 mM DTT, 1 mM CaCl2
Final concentrations: • 100 nM hPAD4 enzyme • 50 μM (8-fold sub-Km) substrate peptide • 0.5% DMSO
Total incubation time: 65 mins at 37° C.
Stop solution: 40 μl 5% TCA in ACN
0.25 μL of compound solution was added to 10 μL of 200 nM PAD4 in assay buffer (100 mM Tris-HCl pH 7.6, 2 mM DTT). After 5 mins, 10 μL of 100 μM of substrate in buffer (100 mM Tris-HCl pH 7.6, 2 mM DTT, 2 mM CaCl2) was added and the reaction incubated for 60 mins at 37 ° C. The enzymatic reaction was quenched by addition of 40 μl of 5% TCA in ACN (1.7% TCA final concentration) stop solution. Arginine containing substrate and citrulline containing product (+1 Da mass shift) were subjected to solid phase extraction on Agilent RapidFire (RF) 300 system and detected on a coupled, triple quadrupole Agilent 6460 QQQ mass spectrometry (MS) device under application of multiple reaction monitoring (MRM) for quantitation.

[2] = target: mPAD4 (Mus musculus, UniProt Q9Z183); test: PAD4 inhibition assay, RapidFire mass spectrometry (mPAD4 RFMS); assay type: biochemical
[3] = 100 nM hPAD4 enzyme, 50 μM substrate peptide, 65 mins at 37° C., read-out: hPAD4 RFMS IC50
[4] = pIC50=-log(IC50), read-out: hPAD4 RFMS pIC50 (converted)
[5] = pIC50=-log(IC50), read-out: mPAD4 RFMS pIC50 (converted)

Chain of hPAD4 (Q9UM07 whole entry): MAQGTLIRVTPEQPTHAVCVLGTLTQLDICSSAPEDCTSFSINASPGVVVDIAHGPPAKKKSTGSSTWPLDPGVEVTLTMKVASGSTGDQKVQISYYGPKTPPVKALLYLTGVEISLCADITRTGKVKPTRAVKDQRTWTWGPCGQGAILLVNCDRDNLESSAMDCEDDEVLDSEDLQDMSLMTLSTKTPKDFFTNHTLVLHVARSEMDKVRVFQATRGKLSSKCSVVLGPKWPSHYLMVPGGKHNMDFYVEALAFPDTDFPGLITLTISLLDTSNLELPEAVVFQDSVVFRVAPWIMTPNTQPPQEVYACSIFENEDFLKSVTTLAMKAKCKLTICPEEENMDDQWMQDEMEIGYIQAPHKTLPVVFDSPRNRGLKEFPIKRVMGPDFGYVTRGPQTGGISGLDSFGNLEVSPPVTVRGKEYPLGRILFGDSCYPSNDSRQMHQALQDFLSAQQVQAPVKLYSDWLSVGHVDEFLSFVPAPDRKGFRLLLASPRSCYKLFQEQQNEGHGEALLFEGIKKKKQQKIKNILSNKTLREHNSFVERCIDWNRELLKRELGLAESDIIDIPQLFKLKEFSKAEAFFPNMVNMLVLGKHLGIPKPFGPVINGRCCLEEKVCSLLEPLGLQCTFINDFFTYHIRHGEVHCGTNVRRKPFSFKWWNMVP
Chain of mPAD4 (Q9Z183 whole entry): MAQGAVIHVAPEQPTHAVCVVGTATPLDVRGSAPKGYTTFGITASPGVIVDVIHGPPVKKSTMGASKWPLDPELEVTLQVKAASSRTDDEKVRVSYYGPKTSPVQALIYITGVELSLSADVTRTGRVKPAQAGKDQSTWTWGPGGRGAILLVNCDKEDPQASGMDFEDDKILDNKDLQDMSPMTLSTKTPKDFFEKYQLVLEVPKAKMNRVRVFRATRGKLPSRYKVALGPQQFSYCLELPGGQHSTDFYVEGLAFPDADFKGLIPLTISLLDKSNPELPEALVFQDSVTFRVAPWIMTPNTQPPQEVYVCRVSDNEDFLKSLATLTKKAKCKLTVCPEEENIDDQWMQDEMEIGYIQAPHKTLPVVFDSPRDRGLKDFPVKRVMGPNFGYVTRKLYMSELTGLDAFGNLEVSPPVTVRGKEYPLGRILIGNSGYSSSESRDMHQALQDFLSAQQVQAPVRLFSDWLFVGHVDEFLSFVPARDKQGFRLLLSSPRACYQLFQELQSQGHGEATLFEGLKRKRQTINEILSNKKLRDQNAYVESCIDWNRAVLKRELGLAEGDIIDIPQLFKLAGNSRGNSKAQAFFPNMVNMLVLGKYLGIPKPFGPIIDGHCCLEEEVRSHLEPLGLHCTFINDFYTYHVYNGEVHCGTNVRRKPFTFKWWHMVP

| Structure (SMILES) | IC50 [1, 3] [nM] | IC50 [1, 4] [nM] | IC50 [2, 5] [nM] | IC50 ([2]; read-out: mPAD4 RFMS IC50) [nM] | hPAD4 RFMS pIC50 ([1]; pIC50=-log(IC50)) |
| --- | --- | --- | --- | --- | --- |
| CC1CCC(N)CN1C(=O)c1cnc2c(c1)nc(-c1cc3cccnc3n1CC1CC1)n2C (stereo not drawn) [Compound I-32] | 1000 to 5000 | 1000 to 10000 | 1000 to 10000 | 5000 to 10000 | – |
| Cn1c(-c2cc3cccnc3n2CC(F)(F)F)nc2cc(C(=O)N3CCC4CCNC4C3)cnc21 (stereo not drawn) [Compound I-19] | ≥ 10000 | – | – | – | – |
| COCCn1c(-c2cc3cccnc3n2CC2CC2)nc2cc(C(=O)N3C[C@H]4CC[C@@H]3[C@@H]4N)cnc21 [Compound I-45] | ≤ 1000 | ≤ 1000 | 1000 to 10000 | 1000 to 5000 | – |
| Cn1c(-c2cc3cccnc3n2CC(F)(F)F)nc2cc(C(=O)N3CC[C@H]4CCN[C@H]4C3)cnc21 [Compound I-3] | ≥ 10000 | – | – | – | – |
| CCn1c(-c2nc3cc(C(=O)N4C[C@H]5CC[C@@H]4[C@@H]5N)cnc3n2CCOC)cc2cccnc21 [Compound I-43] | 1000 to 5000 | 1000 to 10000 | 1000 to 10000 | 1000 to 5000 | – |
| COCCn1c(-c2cc3ccc(OC)nc3n2CC2CC2)nc2cc(C(=O)N3C[C@H]4CC[C@@H]3[C@@H]4N)cnc21 [Compound I-47] | ≤ 1000 | ≤ 1000 | ≤ 1000 | ≤ 1000 | – |
| Cn1c(-c2cc3cccnc3n2CC2CC2)nc2cc(C(=O)N3CCC4CCNC4C3)cnc21 (stereo not drawn) [Compound I-24] | 5000 to 10000 | – | – | – | – |
| COCCn1c(-c2cc3cccnc3n2CC2CC2)nc2cc(C(=O)N3CCC[C@@H](N)C3)cnc21 [Compound I-46] | 1000 to 5000 | 1000 to 10000 | 1000 to 10000 | 1000 to 5000 | – |
| COc1ccc2cc(-c3nc4cc(C(=O)N5C[C@H]6CC[C@@H]5[C@@H]6N)cnc4n3C)n(CC3CC3)c2n1 [Compound I-44] | ≤ 1000 | ≤ 1000 | ≤ 1000 | ≤ 1000 | – |
| Cn1c(-c2cc3cc(F)c(F)cc3n2CC2CC2)nc2cc(C(=O)N3CCC[C@@H](N)C3)cnc21 [Compound I-30] | 1000 to 5000 | 1000 to 10000 | ≤ 1000 | ≤ 1000 | – |
| Cn1c(-c2cc3cc(F)c(F)nc3n2CC2CC2)nc2cc(C(=O)N3CCC[C@@H](N)C3)cnc21 [Compound I-14] | 1000 to 5000 | 1000 to 10000 | ≤ 1000 | ≤ 1000 | – |
| Cn1c(-c2cc3cccnc3n2CC2CC2)nc2cc(C(=O)N3CC[C@@H]4CCN[C@@H]4C3)cnc21 (single isomer, unassigned) [Compound I-10, hydrochloride] | 1000 to 5000 | 1000 to 10000 | 1000 to 10000 | 5000 to 10000 | – |
| Cn1c(-c2cc3cccnc3n2CC2CC2)nc2cc(C(=O)N3CC[C@@H]4CCN[C@@H]4C3)cnc21 [Compound I-26] | 1000 to 5000 | 1000 to 10000 | 1000 to 10000 | 5000 to 10000 | – |
| Cn1c(-c2cc3cccnc3n2CC2CC2)nc2cc(C(=O)N3CC[C@H]4CCN[C@H]4C3)cnc21 (single isomer, unassigned) [Compound I-9, hydrochloride] | ≥ 10000 | 10000 to 100000 | – | – | – |
| N[C@@H]1[C@@H]2CC[C@H]1N(C(=O)c1cnc3c(c1)nc(-c1cc4cccnc4n1CC1CC1)n3CC(F)F)C2 [Compound I-54] | ≤ 1000 | ≤ 1000 | ≤ 1000 | ≤ 1000 | – |
| CCn1c(-c2nc3cc(C(=O)N4C[C@H]5CC[C@@H]4[C@@H]5N)cnc3n2C)cc2cccnc21 [Compound I-39] | 1000 to 5000 | 1000 to 10000 | 1000 to 10000 | 1000 to 5000 | – |
| Cn1c(-c2cc3cccnc3n2CC(F)(F)F)nc2cc(C(=O)N3CC[C@@H]4CCN[C@@H]4C3)cnc21 [Compound I-21] | ≥ 10000 | – | – | – | E/F |

| Structure (SMILES) | IC50 [1, 3] [nM] | IC50 [1, 4] [nM] | IC50 [2, 5] [nM] | IC50 ([2]; read-out: mPAD4 RFMS IC50) [nM] | hPAD4 RFMS pIC50 ([1]; pIC50=-log(IC50)) |
| --- | --- | --- | --- | --- | --- |
| Cn1c(-c2cc3cccnc3n2CC(F)(F)F)nc2cc(C(=O)N3CC[C@H]4CCN[C@H]4C3)cnc21 [Compound I-20] | ≥ 10000 | 10000 to 100000 | – | – | – |
| COc1ccc2cc(-c3nc4cc(C(=O)N5C[C@H]6CC[C@@H]5[C@@H]6N)cnc4n3C[C@H]3C[C@@](C)(OC)C3)n(CC3CC3)c2n1 [Compound I-53] | ≤ 1000 | ≤ 1000 | ≤ 1000 | ≤ 1000 | – |
| Cn1c(-c2cc3cccnc3n2CC2CC2)nc2cc(C(=O)N3C[C@H]4CC[C@@H]3[C@@H]4N)cnc21 [Compound I-41] | ≤ 1000 | ≤ 1000 | ≤ 1000 | ≤ 1000 | – |
| CCn1c(-c2nc3cc(C(=O)N4C[C@H]5CC[C@@H]4[C@@H]5N)cnc3n2CCOC)cc2ccc(OC)nc21 [Compound I-48] | ≤ 1000 | ≤ 1000 | 1000 to 10000 | 1000 to 5000 | – |
| CCn1c(-c2cc3cccnc3n2CC2CC2)nc2cc(C(=O)N3CCC[C@@H](N)C3)cnc21 [Compound I-22] | 1000 to 5000 | 1000 to 10000 | ≤ 1000 | ≤ 1000 | – |
| Cn1c(-c2cc3cccnc3n2CC2CC2)nc2cc(C(=O)N3C[C@@H](N)C[C@H](F)C3)cnc21 [Compound I-13] | 1000 to 5000 | 1000 to 10000 | ≤ 1000 | ≤ 1000 | – |
| N[C@@H]1CCCN(C(=O)c2cnc3c(c2)nc(-c2cc4cccnc4n2CC2CC2)n3CC(F)F)C1 [Compound I-12] | 1000 to 5000 | 1000 to 10000 | 1000 to 10000 | 1000 to 5000 | – |
| Cn1c(-c2cc3cccnc3n2CC2CC2)nc2cc(C(=O)N3CCC[C@@H](N)C3)cnc21 [Compound I-7] | 1000 to 5000 | 1000 to 10000 | ≤ 1000 | ≤ 1000 | – |
| CCn1c(-c2nc3cc(C(=O)N4C[C@H]5CC[C@@H]4[C@@H]5N)cnc3n2C[C@H]2C[C@@](C)(OC)C2)cc2ccc(OC)nc21 [Compound I-51] | ≤ 1000 | ≤ 1000 | ≤ 1000 | ≤ 1000 | – |
| CCn1c(-c2nc3cc(C(=O)N4C[C@H]5CC[C@@H]4[C@@H]5N)cnc3n2C)cc2ccc(OC)nc21 [Compound I-37] | ≤ 1000 | ≤ 1000 | ≤ 1000 | ≤ 1000 | – |
| Cn1c(-c2cc3ccc(C(F)(F)F)nc3n2CC2CC2)nc2cc(C(=O)N3C[C@H]4CC[C@@H]3[C@@H]4N)cnc21 [Compound I-52] | ≤ 1000 | ≤ 1000 | ≤ 1000 | ≤ 1000 | – |
| Cn1c(-c2cc3cccnc3n2CC(F)(F)F)nc2cc(C(=O)N3CCC4CCNC4C3)cnc21 (stereo not drawn) [Compound I-6] | ≥ 10000 | 10000 to 100000 | – | – | – |
| CCn1c(-c2nc3cc(C(=O)N4CCC[C@@H](N)C4)cnc3n2CCOC)cc2cccnc21 [Compound I-42] | ≥ 10000 | 10000 to 100000 | 1000 to 10000 | 1000 to 5000 | – |
| Cn1c(-c2cc3cccnc3n2CC(F)(F)F)nc2cc(C(=O)N3CC[C@@H]4CCN[C@@H]4C3)cnc21 [Compound I-1] | ≥ 10000 | 10000 to 100000 | – | – | – |
| Cn1c(-c2cc3cccnc3n2CC(F)(F)F)nc2cc(C(=O)N3CCC[C@@H](N)C3)cnc21 [Compound I-5] | ≥ 10000 | 10000 to 100000 | – | – | – |
| Cn1c(-c2cc3cccnc3n2CC2CC2)nc2cc(C(=O)N3CCC4CCNC4C3)cnc21 (stereo not drawn) [Compound I-8, 2-[1-(cyclopropylmethyl)-1H-pyrrolo[2,3-b]pyridin-2-yl]-3-methyl-6-{octahydro-1H-pyrrolo[2,3-c]pyridine-6-carbonyl}-3H-imidazo[4,5-b]pyridine hydrochloride] | 5000 to 10000 | 1000 to 10000 | – | – | – |
| Cn1c(-c2cc3cccnc3n2CC2CC2)nc2cc(C(=O)N3CC[C@H]4CCN[C@H]4C3)cnc21 [Compound I-25] | ≥ 10000 | 10000 to 100000 | – | – | – |
